What was measured:
[1] = tested on: Normal hepatocytes of FL83B mice; experiment: Cell viability analysis (1), normal hepatocytes, MTS kit; format: cell-based; settings: for Cell viability (%, relative to the blank group): 24 hours
Method: (§1) Normal hepatocytes of FL83B mice are divided into several groups (FL83B 1×10^4 cells/well), an amount of cells in each of the groups is treated under different conditions respectively and cultured for 24 hours. Then, the commercially available MTS cell viability analysis kit (CellTiter-Glo® One Solution Assay) is used to analyze the cell viability of each of the groups, the treatment condition of each of the groups of cells and the corresponding survival rate are shown in Table 1 to Table 3 below.

[2] = tested on: Normal hepatocytes of FL83B mice treated with 10 mM acetaminophen (damaged hepatic cells); experiment: Cell viability analysis (2), hepatocytes damaged with 10 mM acetaminophen; format: cell-based; settings: after acetaminophen damage
Method: (§2) Normal hepatocytes of FL83B mice are divided into several groups (FL83B 1×10^4 cells/well), and treated with 10 mM acetaminophen for 24 hours respectively to make the hepatic cells in a damaged state, the acetaminophen is removed and then the hepatic cells are treated with different concentrations of the Antrodin A and/or the DMB for 24 hours. Then, the commercially available MTS cell viability analysis kit (CellTiter-Glo® One Solution Assay) is used to analyze the cell viability of each of the groups, the treatment condition of each of the groups of cells and the corresponding survival rate are shown in Table 4 to Table 6 below.

[3] = tested on: c-Met; experiment: Gene expression analysis, real-time qPCR, c-Met; format: cell-based, mice
Method: as §2
(§3) Real-time qPCR kits are used to analyze the gene expression in cells treated with different concentrations of the Antrodin A and the DMB in Example 2, and the results are shown in Tables 7 to 9 below.

[4] = tested on: Notch-2; experiment: Gene expression analysis, real-time qPCR, Notch-2 RNA; format: cell-based, mice
Method: as §2, §3

[5] = Cell viability analysis (1), normal hepatocytes, MTS kit; format: cell-based, mice; settings: mouse, FL83B normal hepatocytes, 24 hours, read-out: Cell viability (%, relative to the blank group)
Method: as §1

## CC(C)=CCOc1ccc(C2=C(CC(C)C)C(=O)OC2=O)cc1 [Antrodin A]
[1]; Antrodin A 8.75 ppm
  Cell viability (%, relative to the blank group): 95.8 ± 4.8%
[1]; Antrodin A 17.5 ppm
  Cell viability (%, relative to the blank group): 107.1 ± 1.2%
[1]; Antrodin A 35 ppm
  Cell viability (%, relative to the blank group): 106.8 ± 6.5%
[1]; Antrodin A 70 ppm
  Cell viability (%, relative to the blank group): 108.5 ± 5.7%
[1]; Antrodin A 140 ppm
  Cell viability (%, relative to the blank group): 50.8 ± 4.4%
[1]; concentration of 8.75 to 70 ppm
  activity and survival rate of the normal hepatic cells (in words): capable of effectively maintaining and enhancing the activity and survival rate of the normal hepatic cells
[1]; concentration of 140 ppm
  toxicity to hepatic cells (in words): toxic to hepatic cells
[2]
  repair of damaged hepatic cells (in words): capable of repairing the damaged hepatic cells and increasing the activity of the hepatic cells
[2]; Antrodin A 17.5 ppm, 24 hours
  Cell viability (%, relative to the blank group): 101.9 ± 10.7%
[2]; Antrodin A 35 ppm, 24 hours
  Cell viability (%, relative to the blank group): 90.2 ± 9.9%
[2]; Antrodin A 70 ppm, 24 hours
  Cell viability (%, relative to the blank group): 102.7 ± 3.3%
[3]
  expression level of c-Met in damaged hepatic cells (in words): increase the expression levels of c-Met and Notch
[4]
  expression level of Notch in damaged hepatic cells (in words): increase the expression levels of c-Met and Notch

## COc1cc(C)c(OC)c2c1OCO2 [DMB, 4,7-Dimethoxy-5-methyl-1,3-benzodioxole]
[1]; various concentrations
  toxicity to the normal hepatic cells (in words): does not cause toxicity to the normal hepatic cells
[5]; DMB 1.25 ppm
  viability at 24 h, 1.25 ppm: 112 ± 2.4%
[5]; DMB 2.5 ppm
  viability at 24 h, 2.5 ppm: 114 ± 1.5%
[5]; DMB 5 ppm
  viability at 24 h, 5 ppm: 115 ± 2%
[5]; DMB 10 ppm
  viability at 24 h, 10 ppm: 113 ± 3.4%
[5]; DMB 20 ppm
  viability at 24 h, 20 ppm: 111 ± 4%
[2]; Mus musculus, FL83B, DMB 2.5 ppm, 24 hours, read-out: Cell viability (%, relative to the blank group)
  viability at 2.5 ppm: 114 ± 3.9%
[2]; Mus musculus, FL83B, DMB 5 ppm, 24 hours, read-out: Cell viability (%, relative to the blank group)
  viability at 5 ppm: 104 ± 4.4%
[2]; Mus musculus, FL83B, DMB 10 ppm, 24 hours, read-out: Cell viability (%, relative to the blank group)
  viability at 10 ppm: 78.2 ± 8.8%
[2]; Mus musculus, FL83B, DMB 17.5 ppm, 24 hours, read-out: Cell viability (%, relative to the blank group)
  viability at 17.5 ppm: 103 ± 7.7%
[2]
  repair of damaged hepatic cells (in words): capable of repairing the damaged hepatic cells and increasing the activity of the hepatic cells
[3]
  expression level of c-Met in damaged hepatic cells (in words): increase the expression levels of c-Met and Notch
[4]
  expression level of Notch in damaged hepatic cells (in words): increase the expression levels of c-Met and Notch
